Experiments:
[1] = system: chemotherapy-resistant human cancer cell lines; details: PPI pretreatment vs no pretreatment; melanoma, colon, breast and ovarian cancer cell lines; cited from earlier work
[2] = system: bleomycin-induced lung injury; details: systemic administration; cited from earlier work
[3] = system: radiation-induced dermatitis; assay: Mouse model of radiation-induced dermatitis: skin appearance and dermatitis scoring; assay type: in vivo, C57BL/6J mice
Method: In vivo study: mouse model of radiation-induced dermatitis: a 30-day study was conducted using C57BL/6J mice (Jackson Laboratories, Bar Harbor, Me.) to assess the efficacy of dermaprazole in mitigating radiation-induced dermatitis. The experiment consisted of 1 group receiving no radiation (Group 1) and 5 groups receiving radiation (Groups 2 to 6) (Table 2) from an X-ray source. First, all the animals were prepared for experiment by removing hair from the flank area using an electric shaver and hair removal cream. The lack of skin irritation from the shaving procedure was visually confirmed prior to randomization. […] Dermaprazole was evaluated in a prophylactic (treatment schedule from day 1 to day 30) and therapeutic (treatment schedule from day 10 to day 30) course. For the prophylactic course, low dose (1%, Group 2) and high dose (2%, Group 3) of dermaprazole were evaluated. For the therapeutic course (Group 4), only the high dose was evaluated. […] The photographs were blindly evaluated and scored by a certified dermatologist using Common Terminology Criteria for Adverse Events (CTCAE; version 4.0)(79): 0=normal skin appearance; 1=mild erythema; 2=moderate-to-severe erythema; 3=desquamation of 25-50% of irradiated area; 4=desquamation of >50% irradiated area; and 5=frank ulcer. […]

[4] = system: radiation-induced dermatitis; assay: Mouse model of radiation-induced dermatitis: histopathology (H&E, Masson's Trichrome, CD11b, F4/80); assay type: in vivo, C57BL/6J mice
Method: In vivo study: mouse model of radiation-induced dermatitis: a 30-day study was conducted using C57BL/6J mice (Jackson Laboratories, Bar Harbor, Me.) to assess the efficacy of dermaprazole in mitigating radiation-induced dermatitis. The experiment consisted of 1 group receiving no radiation (Group 1) and 5 groups receiving radiation (Groups 2 to 6) (Table 2) from an X-ray source. First, all the animals were prepared for experiment by removing hair from the flank area using an electric shaver and hair removal cream. The lack of skin irritation from the shaving procedure was visually confirmed prior to randomization. Twenty-four hours later, radiation was delivered to pre-defined area (2×2 cm) on the flank of the animals in Groups 2 to 6. To induce dermatitis, the animals were anesthetized using 4% isoflurane in oxygen until a deep plane of anesthesia was achieved. Subsequently, the animals were placed under lead shielding (Braintree Scientific, Braintree, Mass.) to protect the remaining part of the body and expose the flank to a total radiation dose of 30 Gy fractionated as 2×15 Gy on study days 0 and 7 using the same settings described above. Dermaprazole was evaluated in a prophylactic (treatment schedule from day 1 to day 30) and therapeutic (treatment schedule from day 10 to day 30) course. For the prophylactic course, low dose (1%, Group 2) and high dose (2%, Group 3) of dermaprazole were evaluated. For the therapeutic course (Group 4), only the high dose was evaluated. Similarly, the sham (Group 1) and vehicle (Group 5) groups were treated with placebo cream containing no active drug starting from day 0 of the study. As a positive treatment control, 1% hydrocortisone (Group 6) was applied starting from day 0. […] The photographs were blindly evaluated and scored by a certified dermatologist using Common Terminology Criteria for Adverse Events (CTCAE; version 4.0)(79): 0=normal skin appearance; 1=mild erythema; 2=moderate-to-severe erythema; 3=desquamation of 25-50% of irradiated area; 4=desquamation of >50% irradiated area; and 5=frank ulcer. […]

| Compound | change of IC50 values of cisplatin, vinblastine and 5-fluorouracil [1] | lung inflammation and fibrosis [2] | skin necrosis ([3]; 16 days and 30 days post-irradiation) | animals with no effect on healing of the wounds ([3]; once daily topical, 30-day model) | ulceration (H&E stain) ([4]; day 30) | collagen accumulation (Masson's Trichrome stain) ([4]; days 16 and 30) | CD11b and F4/80 positive inflammatory cells at the injury site ([4]; immunohistochemical staining of irradiated skin) |
| --- | --- | --- | --- | --- | --- | --- | --- |
| COc1ccc2nc([S@@+]([O-])Cc3ncc(C)c(OC)c3C)[nH]c2c1 [esomeprazole] | order of magnitude reduction | suppresses lung inflammation and fibrosis |  |  |  |  |  |
| C[C@]12CCC(=O)C=C1CC[C@@H]1[C@@H]2[C@@H](O)C[C@@]2(C)[C@H]1CC[C@]2(O)C(=O)CO [1% hydrocortisone, hydrocortisone] |  |  | severe skin necrosis | 90% | ulceration is seen by day 30 | Increased collagen deposition | Increased number of inflammatory cells |

Reference: patent US20210052563A1, “PROTON PUMP INHIBITORS AND METHODS OF USE IN CHEMORADIATION-INDUCED TISSUE INFLAMMATION AND SCARRING” (Baylor College of Medicine, priority 2018, published 2021)
